The results in this text go back to patent US12466818B2, “Thienyl-aniline compounds for treatment of dermal disorders” (NFlection Therapeutics, Inc., priority 2018, dated 2025).

Structures are written as SMILES. Bounds are passed on as bounds.

Data set [1] concerns the target MEK1 (Homo sapiens (Human), UniProt Q02750). As to the kind of experiment: MEK Inhibition Assay-2 (Z'-LYTE biochemical assay). As to conditions: Z'-LYTE assay of Example 37; read-out: IC50 against MEK1. Here is the method:
MEK1 inhibitory activity of compounds were tested using the following procedure (protocol available at thermofisher.com/content/dam/LifeTech/migration/files/drug-discovery/pdfs.par.60256.file.dat/20130430%20ssbk %20customer %20protocol %20 and %20assa y %20conditions.pdf). The Z′-LYTE biochemical assay (ThermoFisher) employs a fluorescence-based, coupled-enzyme format and is based on the differential sensitivity of phosphorylated and non-phosphorylated peptides to proteolytic cleavage.
Test compounds in 100% DMSO were screened in 1% DMSO (final) in the well. For 10 point titrations, 3-fold serial dilutions are conducted from the starting concentration of 30 μM.
After the 1 hour incubation, 5 μL of a 1:1024 dilution of Development Reagent A (available from Invitrogen, catalog no. PV3295) was added.
ATP solutions were diluted to a 4× working concentration in Kinase Buffer (50 mM HEPES pH 7.5, 0.01% BRIJ-35, 10 mM MgCl2, 1 mM EGTA). ATP Km apparent was previously determined using a Z′-LYTE assay. The Development Reagent was diluted in Development Buffer (available from Invitrogen, catalog no. P3127).
Assay Protocol: 2.5 μL of 4× test compound or 100 nL of 100× Test Compound plus 2.4 μL Kinase Buffer, 5 μL of the 2× Peptide/Kinase Mixture, 2.5 μL of 4×ATP Solution were added to the plates and placed on a shake plate for 30-seconds. The kinase reaction was allowed to proceed for 60-minute at room temperature, before 5 μL of Development Reagent Solution was added, and the mixture agitated for 30-seconds on a shake plate. The mixture was incubated for 60-minute at room temperature. Fluorescence was measured using a plate reader and the data were analyzed.
This control yielded 100% cleaved peptide in the Development Reaction. The 100% Phosphorylation Control, which consisted of a synthetically phosphorylated peptide of the same sequence as the peptide substrate, was designed to allow for the calculation of percent phosphorylation. This control yielded a very low percentage of cleaved peptide in the Development Reaction. The 0% Phosphorylation and 100% Phosphorylation Controls allow for the calculation of the percent phosphorylation achieved in a specific reaction well.
The minimum emission ratio in a screen was established by the 0% Inhibition Control, which contained active kinase. This control was designed to produce a 10-50% phosphorylated peptide in the Kinase Reaction. Cascade assays may produce up to 70% phosphorylated peptide.
A known inhibitor control standard curve, 10 point titration, was run for each individual kinase on the same plate as the kinase to ensure the kinase was inhibited within an expected IC50 range previously determined.
The following controls are prepared for each concentration of Test Compound assayed. […] The expected value for a non-interfering compound should be 100%. Any value outside of 90% to 110% was flagged. […] The expected value for a non-fluorescence compound should be 0%. Any value>20% was flagged.
The data in Table A was calculated. XLfit from IDBS was used. The dose response curve was curve fit to model number 205 (sigmoidal dose-response model).
Table 3 lists the MEK1 inhibition assay results of selected compounds according to the above procedure.

Data set [2] is described as follows: Assay 4: liver S9 half-life stability assay. Type of data set: in vitro ADME. As to conditions: liver S9 fraction, pH 7.4; human liver S9, 1 μM test compound, NADPH. The procedure: Compounds can be assessed for metabolic stability in human skin by assessing their rate of disappearance from human S9 skin fraction. Similarly, compounds can be assessed for metabolic stability in human liver by assessing their rate of disappearance from human S9 liver fraction. The protocol below is used to assess the difference between skin and hepatic metabolism.
The assay was carried out in 96-well microtiter plates at 37° C. Reaction mixtures (25 μL) contained a final concentration of 1 μM test compound, 2 mg/mL liver or skin protein, and 1 mM NADPH in buffer (100 mM potassium phosphate, pH 7.4 buffer with 1 mM EDTA, 3 mM MgCl2). At each of the time points (0, 15, 30, and 60 minutes), 150 μL, of quench solution (100% acetonitrile with 0.1% formic acid) with internal standard was transferred to each well. […]
All samples were analyzed on LC/MS/MS using an AB Sciex API 4000 instrument, coupled to a Shimadzu LC-20AD LC Pump system. […]
The extent of metabolism was calculated as the disappearance of the test compound, compared to the 0-min control reaction incubations. Initial rates were calculated for the compound concentration and used to determine tin values and subsequently, the intrinsic clearance, CLint=(0.693)(1/t1/2 (min)) (mL incubation/mg of S9 protein). […]

Sequence of MEK1 (Q02750 whole entry): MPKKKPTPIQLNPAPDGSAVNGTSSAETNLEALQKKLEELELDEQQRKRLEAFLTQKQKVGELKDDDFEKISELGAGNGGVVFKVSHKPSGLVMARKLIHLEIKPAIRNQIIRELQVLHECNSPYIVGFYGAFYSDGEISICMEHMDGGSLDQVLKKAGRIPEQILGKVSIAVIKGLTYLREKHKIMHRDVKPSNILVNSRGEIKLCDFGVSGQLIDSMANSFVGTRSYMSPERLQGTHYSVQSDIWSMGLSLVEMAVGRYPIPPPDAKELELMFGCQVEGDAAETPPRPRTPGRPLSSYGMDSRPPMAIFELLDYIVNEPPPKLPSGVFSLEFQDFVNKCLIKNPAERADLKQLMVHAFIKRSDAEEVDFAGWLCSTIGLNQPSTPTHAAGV

Take `O=C1CCCc2c1sc(Nc1ccc(I)cc1F)c2C(=O)NOCCO` [Compound 1.029, 2-((2-Fluoro-4-iodophenyl)amino)-N-(2-hydroxyethoxy)-7-oxo-4,5,6,7-tetrahydrobenzo[b]thiophene-3-carboxamide]: in data set [1], the IC50 (in general, the concentration that inhibits the measured activity by half) is not above 150 nM. Also, the half-life (commonly the time in which the quantity being followed falls by half) at 1 μM in data set [2] was 0.833 to 1.67 h.
